Laboratory results from PubChem BioAssay (NCI).
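Following 48 hours of exposure in 96-well plates, responses at five concentrations were used to interpolate endpoints linearly. TGI denotes the concentration required for complete inhibition of growth.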

Key:
Experiment in all cases: DTP human tumour cell line panel, 48 h
M14 melanoma = tested on: M14 melanoma
SF-268 CNS = tested on: SF-268 CNS
UACC-257 melanoma = tested on: UACC-257 melanoma
SN12C renal = tested on: SN12C renal
SK-MEL-28 melanoma = tested on: SK-MEL-28 melanoma
OVCAR-4 ovarian = tested on: OVCAR-4 ovarian
RPMI-8226 leukemia = tested on: RPMI-8226 leukemia
UO-31 renal = tested on: UO-31 renal
HCT-15 colon = tested on: HCT-15 colon
EKVX NSCLC = tested on: EKVX NSCLC
SNB-19 CNS = tested on: SNB-19 CNS
CAKI-1 renal = tested on: CAKI-1 renal
T-47D breast = tested on: T-47D breast
OVCAR-8 ovarian = tested on: OVCAR-8 ovarian
HT29 colon = tested on: HT29 colon
SK-OV-3 ovarian = tested on: SK-OV-3 ovarian
COLO 205 colon = tested on: COLO 205 colon
DU-145 prostate = tested on: DU-145 prostate
IGROV1 ovarian = tested on: IGROV1 ovarian
PC-3 prostate = tested on: PC-3 prostate
NCI-H522 lung = tested on: NCI-H522 lung
SK-MEL-5 melanoma = tested on: SK-MEL-5 melanoma
MCF7 breast = tested on: MCF7 breast
SW-620 colon = tested on: SW-620 colon
HOP-92 NSCLC = tested on: HOP-92 NSCLC
MDA-MB-435 = tested on: MDA-MB-435
MDA-MB-231 breast = tested on: MDA-MB-231 breast
SNB-75 CNS = tested on: SNB-75 CNS
HS 578T breast = tested on: HS 578T breast
NCI-H23 lung = tested on: NCI-H23 lung
ACHN renal = tested on: ACHN renal
MDA-N = tested on: MDA-N
KM12 colon = tested on: KM12 colon
RXF 393 renal = tested on: RXF 393 renal
NCI-H460 lung = tested on: NCI-H460 lung
LOX IMVI melanoma = tested on: LOX IMVI melanoma
HCC-2998 colon = tested on: HCC-2998 colon
NCI/ADR-RES ovarian = tested on: NCI/ADR-RES ovarian
MOLT-4 leukemia = tested on: MOLT-4 leukemia
U251 CNS = tested on: U251 CNS
SK-MEL-2 melanoma = tested on: SK-MEL-2 melanoma
HCT-116 colon = tested on: HCT-116 colon
TK-10 renal = tested on: TK-10 renal
OVCAR-5 ovarian = tested on: OVCAR-5 ovarian
UACC-62 melanoma = tested on: UACC-62 melanoma
A549 NSCLC = tested on: A549 NSCLC
SF-295 CNS = tested on: SF-295 CNS
SR leukemia = tested on: SR leukemia
OVCAR-3 ovarian = tested on: OVCAR-3 ovarian
HL-60(TB) leukemia = tested on: HL-60(TB) leukemia
SF-539 CNS = tested on: SF-539 CNS
CCRF-CEM leukemia = tested on: CCRF-CEM leukemia
K-562 leukemia = tested on: K-562 leukemia
HOP-62 NSCLC = tested on: HOP-62 NSCLC
786-0 renal = tested on: 786-0 renal
NCI-H226 lung = tested on: NCI-H226 lung
A498 renal = tested on: A498 renal

## CCOC(=O)C(NC(=O)CC)(Nc1ccccc1OC)C(F)(F)F (stereo not given)
M14 melanoma
  TGI: > 100 µM
SF-268 CNS
  TGI: > 100 µM
UACC-257 melanoma
  TGI: > 100 µM
SN12C renal
  TGI: > 100 µM
SK-MEL-28 melanoma
  TGI: > 100 µM
OVCAR-4 ovarian
  TGI: > 100 µM
RPMI-8226 leukemia
  TGI: > 100 µM
UO-31 renal
  TGI: > 100 µM
HCT-15 colon
  TGI: > 100 µM
EKVX NSCLC
  TGI: > 100 µM
SNB-19 CNS
  TGI: > 100 µM
CAKI-1 renal
  TGI: > 100 µM
T-47D breast
  TGI: > 100 µM
OVCAR-8 ovarian
  TGI: > 100 µM
HT29 colon
  TGI: > 100 µM
SK-OV-3 ovarian
  TGI: > 100 µM
COLO 205 colon
  TGI: > 100 µM
DU-145 prostate
  TGI: > 100 µM
IGROV1 ovarian
  TGI: > 100 µM
PC-3 prostate
  TGI: > 100 µM
NCI-H522 lung
  TGI: > 100 µM
SK-MEL-5 melanoma
  TGI: > 100 µM
MCF7 breast
  TGI: > 100 µM
SW-620 colon
  TGI: > 100 µM
HOP-92 NSCLC
  TGI: > 100 µM
MDA-MB-435
  TGI: > 100 µM
MDA-MB-231 breast
  TGI: > 100 µM
SNB-75 CNS
  TGI: > 100 µM
HS 578T breast
  TGI: > 100 µM
NCI-H23 lung
  TGI: > 100 µM
ACHN renal
  TGI: > 100 µM
MDA-N
  TGI: > 100 µM
KM12 colon
  TGI: > 100 µM
RXF 393 renal
  TGI: > 100 µM
NCI-H460 lung
  TGI: > 100 µM
LOX IMVI melanoma
  TGI: > 100 µM
HCC-2998 colon
  TGI: > 100 µM
NCI/ADR-RES ovarian
  TGI: > 100 µM
MOLT-4 leukemia
  TGI: > 100 µM
U251 CNS
  TGI: > 100 µM
SK-MEL-2 melanoma
  TGI: > 100 µM
HCT-116 colon
  TGI: > 100 µM
TK-10 renal
  TGI: > 100 µM
OVCAR-5 ovarian
  TGI: > 100 µM
UACC-62 melanoma
  TGI: > 100 µM
A549 NSCLC
  TGI: > 100 µM
SF-295 CNS
  TGI: > 100 µM
SR leukemia
  TGI: > 100 µM
OVCAR-3 ovarian
  TGI: > 100 µM
HL-60(TB) leukemia
  TGI: > 100 µM
SF-539 CNS
  TGI: > 100 µM
CCRF-CEM leukemia
  TGI: > 100 µM
K-562 leukemia
  TGI: > 100 µM

## c1ccc2c(c1)CCN2CCN1CCc2ccccc21
M14 melanoma
  TGI: > 10 µM
SF-268 CNS
  TGI: > 10 µM
UACC-257 melanoma
  TGI: > 10 µM
SN12C renal
  TGI: > 10 µM
SK-MEL-28 melanoma
  TGI: > 10 µM
OVCAR-4 ovarian
  TGI: > 10 µM
RPMI-8226 leukemia
  TGI: > 10 µM
UO-31 renal
  TGI: > 10 µM
HCT-15 colon
  TGI: > 10 µM
EKVX NSCLC
  TGI: > 10 µM
SNB-19 CNS
  TGI: > 10 µM
CAKI-1 renal
  TGI: > 10 µM
T-47D breast
  TGI: > 10 µM
OVCAR-8 ovarian
  TGI: > 10 µM
HT29 colon
  TGI: > 10 µM
SK-OV-3 ovarian
  TGI: > 10 µM
COLO 205 colon
  TGI: > 10 µM
DU-145 prostate
  TGI: > 10 µM
IGROV1 ovarian
  TGI: > 10 µM
PC-3 prostate
  TGI: > 10 µM
NCI-H522 lung
  TGI: > 10 µM
SK-MEL-5 melanoma
  TGI: > 10 µM
MCF7 breast
  TGI: > 10 µM
SW-620 colon
  TGI: > 10 µM
HOP-62 NSCLC
  TGI: > 10 µM
HOP-92 NSCLC
  TGI: > 10 µM
MDA-MB-435
  TGI: > 10 µM
MDA-MB-231 breast
  TGI: > 10 µM
SNB-75 CNS
  TGI: > 10 µM
HS 578T breast
  TGI: > 10 µM
786-0 renal
  TGI: > 10 µM
NCI-H23 lung
  TGI: > 10 µM
ACHN renal
  TGI: > 10 µM
MDA-N
  TGI: > 10 µM
KM12 colon
  TGI: > 10 µM
RXF 393 renal
  TGI: > 10 µM
NCI-H460 lung
  TGI: > 10 µM
LOX IMVI melanoma
  TGI: > 10 µM
HCC-2998 colon
  TGI: > 10 µM
NCI/ADR-RES ovarian
  TGI: > 10 µM
MOLT-4 leukemia
  TGI: > 10 µM
U251 CNS
  TGI: > 10 µM
SK-MEL-2 melanoma
  TGI: > 10 µM
HCT-116 colon
  TGI: > 10 µM
TK-10 renal
  TGI: > 10 µM
OVCAR-5 ovarian
  TGI: > 10 µM
UACC-62 melanoma
  TGI: > 10 µM
NCI-H226 lung
  TGI: > 10 µM
A549 NSCLC
  TGI: > 10 µM
SF-295 CNS
  TGI: > 10 µM
SR leukemia
  TGI: > 10 µM
OVCAR-3 ovarian
  TGI: > 10 µM
HL-60(TB) leukemia
  TGI: > 10 µM
SF-539 CNS
  TGI: > 10 µM
CCRF-CEM leukemia
  TGI: > 10 µM
K-562 leukemia
  TGI: > 10 µM

## Cc1cc(C)n(C(=O)CSc2nc3ccc(I)cc3c(=O)n2Cc2ccccc2)n1
M14 melanoma
  TGI: > 100 µM
SF-268 CNS
  TGI: 71 µM
UACC-257 melanoma
  TGI: > 100 µM
SN12C renal
  TGI: > 100 µM
SK-MEL-28 melanoma
  TGI: > 100 µM
OVCAR-4 ovarian
  TGI: > 100 µM
RPMI-8226 leukemia
  TGI: > 100 µM
HCT-15 colon
  TGI: > 100 µM
EKVX NSCLC
  TGI: > 100 µM
SNB-19 CNS
  TGI: > 100 µM
CAKI-1 renal
  TGI: 22.2 µM
T-47D breast
  TGI: > 100 µM
OVCAR-8 ovarian
  TGI: 70.3 µM
HT29 colon
  TGI: > 100 µM
SK-OV-3 ovarian
  TGI: > 100 µM
COLO 205 colon
  TGI: > 100 µM
DU-145 prostate
  TGI: > 100 µM
IGROV1 ovarian
  TGI: 78.8 µM
PC-3 prostate
  TGI: 63.7 µM
NCI-H522 lung
  TGI: 62.1 µM
SK-MEL-5 melanoma
  TGI: > 100 µM
MCF7 breast
  TGI: > 100 µM
SW-620 colon
  TGI: > 100 µM
HOP-62 NSCLC
  TGI: 70.3 µM
HOP-92 NSCLC
  TGI: 53 µM
MDA-MB-435
  TGI: > 100 µM
MDA-MB-231 breast
  TGI: 66.3 µM
SNB-75 CNS
  TGI: 63.4 µM
A498 renal
  TGI: 63.4 µM
HS 578T breast
  TGI: 44.6 µM
786-0 renal
  TGI: > 100 µM
NCI-H23 lung
  TGI: > 100 µM
ACHN renal
  TGI: > 100 µM
MDA-N
  TGI: > 100 µM
KM12 colon
  TGI: > 100 µM
RXF 393 renal
  TGI: 62.4 µM
NCI-H460 lung
  TGI: > 100 µM
LOX IMVI melanoma
  TGI: > 100 µM
HCC-2998 colon
  TGI: > 100 µM
NCI/ADR-RES ovarian
  TGI: > 100 µM
MOLT-4 leukemia
  TGI: > 100 µM
U251 CNS
  TGI: > 100 µM
SK-MEL-2 melanoma
  TGI: > 100 µM
HCT-116 colon
  TGI: > 100 µM
TK-10 renal
  TGI: > 100 µM
OVCAR-5 ovarian
  TGI: > 100 µM
UACC-62 melanoma
  TGI: > 100 µM
NCI-H226 lung
  TGI: > 100 µM
A549 NSCLC
  TGI: > 100 µM
SF-295 CNS
  TGI: > 100 µM
SR leukemia
  TGI: > 100 µM
OVCAR-3 ovarian
  TGI: > 100 µM
HL-60(TB) leukemia
  TGI: > 100 µM
SF-539 CNS
  TGI: > 100 µM
CCRF-CEM leukemia
  TGI: > 100 µM
K-562 leukemia
  TGI: > 100 µM
